Data set [1] can be described thus: Partition coefficient (logP). It is filed as physicochemical. The following applies: octanol/water.
The target in data set [2] is Beta-3 adrenergic receptor (Rattus norvegicus) (UniProt P26255). The data set can be described thus: Effective dose required for beta-3-adrenergic activity against free fatty acid (FFA) in rat plasma. The data set is classed as functional.
For data set [3] the target is unchanged. The data set can be described thus: Beta-3-adrenergic activity measured by percent response against free fatty acid (FFA) in rat plasma at a dosage of 0.1 mg/kg. It is filed as functional, organism-based. Details: dose 0.1 mg/kg.
Another data set is filed under the species Mus musculus. Briefly: The compound was evaluated for the % glucose lowering along with drug intake over the test period of 5-7 days in mice.
Data set [4] concerns the target Beta-3 adrenergic receptor (Rattus norvegicus) (UniProt P26255). Briefly: Compound was evaluated for the beta-3-adrenergic activity by measuring % response against free fatty acid (FFA) in rat plasma at a dosage of 0.1 mg/kg. The data set is classed as functional, organism-based. Details: dose 0.1 mg/kg.

We go through seven compounds from ChEMBL document CHEMBL1131783, “Prodrugs of CL316243: a selective beta3-adrenergic receptor agonist for treating obesity and diabetes” (Bioorg Med Chem Lett, 1999).

Beta-3 adrenergic receptor (Rattus norvegicus), sequence (P26255 whole entry): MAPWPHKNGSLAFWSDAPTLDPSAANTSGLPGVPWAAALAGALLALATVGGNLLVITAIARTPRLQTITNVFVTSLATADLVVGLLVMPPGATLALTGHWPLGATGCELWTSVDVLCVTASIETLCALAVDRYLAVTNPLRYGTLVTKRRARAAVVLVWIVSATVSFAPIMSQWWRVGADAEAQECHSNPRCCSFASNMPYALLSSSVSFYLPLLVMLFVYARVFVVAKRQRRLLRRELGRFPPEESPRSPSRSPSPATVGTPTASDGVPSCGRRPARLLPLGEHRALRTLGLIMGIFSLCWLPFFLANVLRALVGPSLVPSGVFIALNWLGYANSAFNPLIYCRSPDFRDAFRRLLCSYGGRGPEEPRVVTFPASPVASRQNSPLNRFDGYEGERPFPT

`C[C@H](Cc1ccc2c(c1)OC(C(=O)OCCC(C)(C)C)(C(=O)OCCC(C)(C)C)O2)NC[C@H](O)c1cccc(Cl)c1`: the logP in data set [1] amounted to 3.21. In addition, the 50% effective dose (ED50) in data set [2] came out at 0.08 mg/kg; in the data set filed under Mus musculus, 0.201 mg/kg. In data set [3], the Response is 71%.
`CC(C)CCOC(=O)C1(C(=O)OCCC(C)C)Oc2ccc(C[C@@H](C)NC[C@H](O)c3cccc(Cl)c3)cc2O1` had a logP in data set [1] of 3.77. The ED50 was 0.026 mg/kg in data set [2] and 0.11 mg/kg in the data set listed under Mus musculus. For the same compound, the Response in data set [3] worked out at 109%.
Regarding `C[C@H](Cc1ccc2c(c1)OC(C(=O)OCC(C)(C)C)(C(=O)OCC(C)(C)C)O2)NC[C@H](O)c1cccc(Cl)c1`, the logP in data set [1] came out at 2.16. Further, the ED50 in data set [2] came out at 0.027 mg/kg; in the data set filed under Mus musculus, 0.028 mg/kg. This compound also yielded a Response in data set [3] of 134%.
`C[C@H](Cc1ccc2c(c1)OC(C(=O)OCC1CCC1)(C(=O)OCC1CCC1)O2)NC[C@H](O)c1cccc(Cl)c1` had a logP in data set [1] of 2.34. The ED50 in data set [2] was determined as 0.071 mg/kg; in the data set filed under Mus musculus, 0.128 mg/kg. The compound further returned a Response in data set [3] of 83%.
Take `CCOC(=O)C1(C(=O)OCC)Oc2ccc(C[C@@H](C)NC[C@H](O)c3cccc(Cl)c3)cc2O1`: the logP in data set [1] worked out at 0.35. Besides, the ED50 in data set [2] turned out to be 0.034 mg/kg; in the data set filed under Mus musculus, 0.1 mg/kg. In data set [3], this compound returned a Response of 114%.
`C[C@H](Cc1ccc2c(c1)OC(C(=O)[O-])(C(=O)[O-])O2)NC[C@H](O)c1cccc(Cl)c1.[Na+].[Na+]` returned a logP in data set [1] of 0.046. The ED50 in data set [2] stood at 0.24 mg/kg; in the data set filed under Mus musculus, 0.54 mg/kg. The same compound gave a Response in data set [4] of 2%.
The compound `CC(C)OC(=O)C1(C(=O)OC(C)C)Oc2ccc(C[C@@H](C)NC[C@H](O)c3cccc(Cl)c3)cc2O1` had a log partition coefficient (logP) in data set [1] of 1.29. The ED50 came out at 0.061 mg/kg in data set [2] and 0.056 mg/kg in the data set filed under Mus musculus. This compound also displayed a Response in data set [3] of 100%.

Broadly, the logP is a log measure of how a compound divides between an organic and an aqueous phase. What is called ED50 is the dose that gives a 50% effect, or the effect in half of the subjects.
